Source: ChEMBL document CHEMBL3046017, “Design, synthesis, and docking studies of telmisartan analogs for the treatment of metabolic syndrome” (Med Chem Res, 2009)
The source made the active and inactive calls. The calls are words filed in the database; no cut-off is given here.

Tests used:
[1] = target: T1, Peroxisome proliferator-activated receptor gamma (Homo sapiens) (UniProt P37231); assay: Agonist activity at Homo sapiens (human) PPARgamma LBD expressed in African green monkey CV-1 cells co-expressing GAL4 assessed as beta-galactosidase activity at 10 uM after 24 hr by luciferase reporter gene assay relative to rosiglitazone; format: cell-based
T1 sequence (whole entry): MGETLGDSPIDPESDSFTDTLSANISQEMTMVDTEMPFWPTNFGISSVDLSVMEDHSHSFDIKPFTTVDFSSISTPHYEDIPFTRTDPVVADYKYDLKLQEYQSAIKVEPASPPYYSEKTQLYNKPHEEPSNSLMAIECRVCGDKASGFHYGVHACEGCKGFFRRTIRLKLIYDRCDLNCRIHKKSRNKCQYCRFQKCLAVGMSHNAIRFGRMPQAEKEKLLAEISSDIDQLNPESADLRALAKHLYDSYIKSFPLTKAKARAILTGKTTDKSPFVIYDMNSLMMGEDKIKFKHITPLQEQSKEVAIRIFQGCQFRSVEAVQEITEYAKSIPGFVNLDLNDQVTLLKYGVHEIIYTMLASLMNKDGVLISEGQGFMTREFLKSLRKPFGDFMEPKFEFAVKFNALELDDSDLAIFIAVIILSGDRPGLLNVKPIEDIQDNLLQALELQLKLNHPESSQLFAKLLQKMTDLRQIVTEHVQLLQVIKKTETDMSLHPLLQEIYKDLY

[2] = target: T2, Type-1 angiotensin II receptor A (Rattus norvegicus, UniProt P25095); assay: Displacement of [125I]-SI-Ang-2 from AT1 receptor in Rattus norvegicus Sprague-Dawley (rat) liver membranes after 2 hr; parameters: species or system Membrane
T2 sequence (P25095 whole entry): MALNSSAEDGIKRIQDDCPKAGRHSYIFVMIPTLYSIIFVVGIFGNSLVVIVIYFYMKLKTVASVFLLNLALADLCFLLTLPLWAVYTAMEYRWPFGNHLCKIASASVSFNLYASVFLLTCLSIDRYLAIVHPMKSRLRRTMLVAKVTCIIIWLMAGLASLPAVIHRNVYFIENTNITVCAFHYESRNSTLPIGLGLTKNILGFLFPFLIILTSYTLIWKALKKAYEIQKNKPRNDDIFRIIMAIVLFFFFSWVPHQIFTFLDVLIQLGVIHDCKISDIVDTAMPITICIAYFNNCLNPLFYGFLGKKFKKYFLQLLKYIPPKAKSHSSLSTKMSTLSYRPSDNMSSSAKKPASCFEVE

3T3-L1 = assay: Induction of adipocyte differentiation in Mus musculus (mouse) 3T3L1 cells at 1 to 5 uM; format: functional, cell-based

| %max [1] | Ki [2] [µM] | SMILES | Activity (3T3-L1) |
| --- | --- | --- | --- |
| inactive | 0.188 | CCCc1nc2c(C)cc(-c3nc4ccccc4n3C)cc2n1Cc1ccc(-c2ccc(C(=O)O)cc2C(=O)O)cc1 | inactive |
| 3.6% | > 10 | COC(=O)c1ccc(-c2ccc(Cn3cnc4ccc(-c5nc6ccccc6n5C)cc43)cc2)cc1 | inactive |
| 1.8% | > 10 | COC(=O)c1ccccc1-c1ccc(Cn2cnc3ccccc32)cc1 | inactive |
| 7.3% | > 10 | COC(=O)c1ccc(-c2ccc(Cn3c(C)nc4ccc(-c5nc6ccccc6n5C)cc43)cc2)cc1 | inactive |
| 2.8% | > 10 | COC(=O)c1ccc(-c2ccc(Cn3c(C)nc4ccc(-c5nc6ccccc6n5C)cc43)cc2)c(C(=O)OC)c1 | inactive |
| 21.2% | 0.00023 | CCCc1nc2c(C)cc(-c3nc4ccccc4n3C)cc2n1Cc1ccc(-c2ccccc2C(=O)O)cc1 [TELMISARTAN] | Active |

The remaining lines, values behind:

| SMILES | %max [1] | Ki [2] [µM] | Activity (3T3-L1) |
| --- | --- | --- | --- |
| COC(=O)c1ccccc1-c1ccc(Cn2cnc3ccc(-c4nc5ccccc5n4C)cc32)cc1 | 6.3% | > 10 | inactive |
| CCCc1nc2c(C)cc(-c3nc4ccccc4n3C)cc2n1Cc1ccc(-c2ccc(C(=O)OC)cc2C(=O)OC)cc1 | 8% | 0.65 | inactive |
| COC(=O)c1ccc(-c2ccc(Cn3cnc4ccc(-c5nc6ccccc6n5C)cc43)cc2)c(C(=O)OC)c1 | 5.7% | > 10 | inactive |
| Cn1c(-c2ccc3ncn(Cc4ccc(-c5ccccc5)cc4)c3c2)nc2ccccc21 | 5.7% | > 10 | inactive |
| COC(=O)c1ccccc1-c1ccc(Cn2c(C)nc3ccc(-c4nc5ccccc5n4C)cc32)cc1 | 6.8% | > 10 | inactive |
| COC(=O)c1ccccc1-c1ccc(Cn2cnc3c(C)cccc32)cc1 | 4.7% | > 10 | inactive |
